Measurements published in article PMC6010047, “Design, synthesis and biological evaluation of novel hydroxy-phenyl-1H-benzimidazoles as radical scavengers and UV-protective agents” (Journal of Enzyme Inhibition and Medicinal Chemistry, 2017).
pIC50: −log10 of the molar value. Like-named read-outs stand apart in the source and are kept apart here.

Assays:
[1] = In vitro evaluation of filtering parameters of formulations on PMMA plates (Diffey and Robson); conditions: for SPF / UVA/UVB / UVAPF / λc (critical wavelength): 3% (w/w) in O/W formulation, PMMA plates
Excerpt: It was decided to use a standard formulation oil in water (O/W).
In vitro approaches consist in applying a thin film of sunscreen product on an artificial substrate and test, via spectrophotometric measures, the amount of UV radiation passing through the film. Several different artificial substrates are available for this type of analysis; the substrate should be as closed as possible to the physical characteristics of the skin. Among the substrates available for these purposes, the substrate used in this study to analyse the sunscreen products were PMMA plates. This substrate is easily handled and can be supplied with a reproducible roughness. WW5 PMMA plates have been purchased from Schonberg GmbH (Munich, Germany). The plates, used in this study, have an area of 25 cm^2 and standardized […] roughness. Transmittance and absorbance measurements were carried out by a SHIMAZDU UV-2600 provided of integrating sphere ISR 2600 60 mm and coupled with a SPF determination software and a PMMA plate with approximately 15 μL of glycerin served as reference.
In order to evaluate possible activity as sun filters and antioxidants, suitable in the development of novel class of dualistic sunscreens, the synthesized molecules were included at the concentration of 3% (w/w) in a topical formulation. To this end standard oil in water (O/W) formulation was devised, taking into account the absence of any UV filtering and/or antioxidant molecule, in order to obtain a reference formulation. It was not possible to analyze compound 7 in the formulation because of high instability (phase separation induced by 7). Formulations containing the active ingredients were tested for their SPF efficacy by the in vitro method derived from Diffey and Robson[32], in comparison with the same formulation containing the reference PBSA.
This method is based on the measure of spectral transmission of ultraviolet radiation, with and without the sunscreen applied, through an irregular substrate that simulates the skin surface and permits transmission of UV radiation. Although with some limitation, the test is used to predict SPF in vivo and to screen the filtering activity of new molecules that cannot be tested by in vivo because of lacking of more data concerning safety. The critical wavelength (λc) for the test product is defined as that wavelength where the area under the absorbance spectrum for the irradiated product from 290 nm to λc is 90% of the integral of the absorbance spectrum from 290 nm to 400 nm. Critical wavelength value of greater than 370 nm is necessary, in order to satisfy requirements for broad-spectrum UVB/UVA protection and associated labeling. Polymethylmethacrylate plates (PMMA) with a specific roughness were a satisfactory substrate for this method, because they are UV-transparent, nonfluorescent, photostable and inert to all potential sunscreen formulation ingredients. Table 3 lists the data obtained for the model formulation containing the synthesized compounds. These parameters are necessary to evaluate whether a sunscreen fulfills the requirements for efficacy, and they are SPF, UVA protection factor (UVAPF), UVA/UVB ratio and critical wavelength.
A set of model formulations was prepared: an oil-in-water emulsion (O/W), without sunscreen molecules (Ref. A, Figure 5), prepared as reference formulation; two formulations containing PBSA or oxisol (12) at 3% were prepared (Ref. C and B, respectively, Figure 5), in order to evaluate the filter properties of oxisol (12). Moreover, as stated earlier, SPF booster properties were assayed on other four formulations including a mix of filters with a theoretical SPF value of 15 and 30, adding 3% of oxisol (12) or PBSA (Ref. E, F, G, H, Figure 5). […]

[2] = Photostability of formulations under solar simulator, HPLC; format: physicochemical; conditions: 3% formulation; for Residual product (photostability): 2 mg/cm^2, solar simulator 1 h, HPLC
Description: (§1) HPLC analysis was performed using an Agilent 1100 Series HPLC System equipped with a G1315A DAD, and with a Hydro-RP C18 Synergi 80 Å column (4.6 × 150 mm, 4 μm) from Phenomenex, maintained at 25 °C during all the time of the analysis. The mobile phase consisted of water (0.01 M H3PO4) (solvent A) and acetonitrile (0.01 M H3PO4) (solvent B). • PBSA and 3: the determination was carried out in isocratic condition, A: 91%/B: 9%. Separation was monitored with absorbance detection at λmax of the molecule ±8 nm. The flow rate was 1.0 mL/min. • […]: the determination was carried out in isocratic condition, A: 84%/B: 16%. Separation was monitored with absorbance detection at λmax of the molecule ±8 nm. The flow rate was 1.0 mL/min
The solar simulator emission was maintained at 500 W/m^2. A portion of cosmetic formulation containing the sunscreen molecule (3%, w/w) was transferred onto the bottom of a beaker to gain a cosmetic mount of 2 mg/cm^2 and then was irradiated for 1 h with the solar simulator. After irradiation the beaker was removed and its content quantitatively transferred into a 50 mL calibrated flask with methanol and the remaining sunscreen concentration was determined by HPLC as described above. All samples were protected from light both before and after irradiation, the degree of photodegradation was evaluated by comparing the areas of the irradiated samples, with those of the unirradiated preparations.
Stability and photostability tests were performed only on compounds that as provided with the best antioxidant capacity together with a good photoprotection activity (i.e. 3, and 12). At first, the effective concentration of filtering molecules was verified in the formulation by HPLC. Samples of the formulations (2 mg/cm^2) were spread on a PMMA plate, for each compound including PBSA, and placed under a solar simulator for one hour before repeating HPLC analysis.

[3] = format: physicochemical
Description: as §1
Molecules 3 and 12 were challenged in accelerated stability studies against the parent compound. The formulations were submitted to accelerated aging at 40 °C and analyzed at specific intervals, with HPLC.

NCTC-2544 cells [4] = tested on: NCTC-2544 cells
NCTC-2544 cells [5] = experiment: Cytotoxicity, MTT test, 72 h; conditions: read-out: IC50 cytotoxicity; NCTC-2544 human keratinocytes, 72 h, MTT

| Compound | SPF [1] | UVA/UVB [1] | UVAPF [1] | λc (critical wavelength) [1] [nm] | Residual product (photostability) [2] | % of remaining compounds T0 [3] [%] | % of remaining compounds T7 [3] | % of remaining compounds T14 [3] | % of remaining compounds T21 [3] | % of remaining compounds T28 [3] | % of remaining compounds T35 [3] | % of remaining compounds T49 [3] | % of remaining compounds T63 [3] | pIC50 (NCTC-2544 cells [4]) | SPF of emulsion (Figure 5) ([1]; O/W emulsion with 3% of the molecule only) | degradation rate (photostability) ([2]; solar simulator 1 h) | pIC50 (NCTC-2544 cells [5]) |
| --- | --- | --- | --- | --- | --- | --- | --- | --- | --- | --- | --- | --- | --- | --- | --- | --- | --- |
| O=S(=O)(O)c1ccc2[nH]c(-c3ccccc3O)nc2c1 [Compound 4, 2-(2-Hydroxy-phenyl)-1H-benzimidazole-5-sulfonic acid] | 2.22 ± 0.13 | 0.96 ± 0.01 | 1.06 ± 0.07 | 355 | – | – | – | – | – | – | – | – | – | – | – | – | – |
| O=C(O)c1ccc2[nH]c(-c3ccc(O)cc3)nc2c1 [Compound 14, 2-(4-Hydroxy-phenyl)-1H-benzimidazole-5-carboxylic acid] | 6.01 ± 0.31 | 0.70 ± 0.05 | 2.04 ± 0.11 | 350 | – | – | – | – | – | – | – | – | – | – | – | – | – |
| O=C(O)c1ccc2[nH]c(-c3ccc(O)cc3O)nc2c1 [Compound 13, 2-(2,4-Dihydroxy-phenyl)-1H-benzimidazole-5-carboxylic acid] | 2.85 ± 0.17 | 1.27 ± 0.02 | 1.58 ± 0.10 | 368 | – | – | – | – | – | – | – | – | – | – | – | – | – |
| O=S(=O)(O)c1ccc2[nH]c(-c3ccccc3)nc2c1 [PBSA, 2-phenyl-1H-benzimidazole-5-sulfonic acid, reference compound] | 4.56 ± 1.09 | 0.26 ± 0.05 | 1.04 ± 0.06 | 333 | 96.7% ± 1.8% | 100 | 99,4% | 98,1% | 97,2% | 96,4% | 94% | 92% | 90% | – | – | – | – |
| O=C(O)c1ccc2[nH]c(-c3ccc(O)c(O)c3O)nc2c1 [Compound 15, 2-(2,3,4-Trihydroxy-phenyl)-1H-benzimidazole-5-carboxylic acid] | 3.69 ± 0.24 | 0.96 ± 0.08 | 1.87 ± 0.08 | 382 | – | – | – | – | – | – | – | – | – | – | – | – | – |
| Oc1ccc(-c2nc3ccccc3[nH]2)c(O)c1O [Compound 11, 2-(2,3,4-Trihydroxy-phenyl)-1H-benzimidazole] | 2.85 ± 0.22 | 0.90 ± 0.01 | 1.35 ± 0.1 | 381 | – | – | – | – | – | – | – | – | – | – | – | – | – |
| O=S(=O)(O)c1ccc2[nH]c(-c3ccc(O)c(O)c3O)nc2c1 [Compound 6, 2-(2,3,4-Trihydroxy-phenyl)-1H-benzimidazole-5-sulfonic acid] | 5.99 ± 0.12 | 0.89 ± 0.03 | 2.72 ± 0.08 | 383 | – | – | – | – | – | – | – | – | – | – | – | – | – |
| O=S(=O)(O)c1ccc2[nH]c(-c3ccc(O)c(O)c3)nc2c1 [Compound 3, 2-(3,4-Dihydroxy-phenyl)-1H-benzimidazole-5-sulfonic acid] | 9.83 ± 0.64 | 0.74 ± 0.04 | 3.63 ± 0.23 | 358 | 94.9% ± 0.8% | 100 | 96,7% | 89,6% | 86,3% | 73,4% | 73,4% | 67,6% | 64,6% | – | – | – | – |
| Oc1ccc(-c2nc3ccccc3[nH]2)cc1O [Compound 8, 2-(3,4-Dihydroxy-phenyl)-1H-benzimidazole] | 5.20 ± 0.20 | 0.78 ± 0.02 | 1.90 ± 0.09 | 368 | – | – | – | – | – | – | – | – | – | – | – | – | – |
| 2-(2,4-Dihydroxy-phenyl)-1H-benzimidazole [Compound 9] | 3.57 ± 0.23 | 1.10 ± 0.05 | 1.89 ± 0.05 | 380 | – | – | – | – | – | – | – | – | – | < 4.30 | – | – | – |
| O=C(O)c1ccc2[nH]c(-c3ccc(O)c(O)c3)nc2c1 [Compound 12, 2-(3,4-Dihydroxy-phenyl)-1H-benzimidazole-5-carboxylic acid] | 2.21 ± 0.17 | 1.00 ± 0.04 | 1.88 ± 0.12 | 370 | 98.4% ± 0.9% | 100 | 95,4% | 95,4% | 95,1% | 92,8% | 86,9% | 86,9% | 86,8% | – | does not present an appreciable value of SPF | less than 2% | – |
| 2-(2-Hydroxy-phenyl)-1H-benzimidazole [Compound 10] | 1.96 ± 0.14 | 1.01 ± 0.02 | 1.06 ± 0.08 | 378 | – | – | – | – | – | – | – | – | – | – | – | – | < 4.30 |
| O=S(=O)(O)c1ccc2[nH]c(-c3ccc(O)cc3O)nc2c1 [Compound 5, 2-(2,4-Dihydroxy-phenyl)-1H-benzimidazole-5-sulfonic acid] | 2.18 ± 0.14 | 1.13 ± 0.01 | 1.21 ± 0.04 | 370 | – | – | – | – | – | – | – | – | – | – | – | – | – |
| O=S(=O)(O)c1ccc2[nH]c(-c3ccc(O)cc3)nc2c1 [Compound 2, 2-(4-Hydroxy-phenyl)-1H-benzimidazole-5-sulfonic acid] | 4.74 ± 0.15 | 0.51 ± 0.01 | 1.36 ± 0.07 | 346 | – | – | – | – | – | – | – | – | – | – | – | – | – |
